{"source": "patent US10189881B2", "about": "“MPS peptides and use thereof” (The Regents of the University of California, priority 2013, dated 2019)", "key": {"[1]": {"test_system": "CL1-0 cells", "experiment": "MTS cell viability, drug treatment of mock transfected cells", "format": "cell-based, human", "conditions": "control mock transfected CL1-0 cells; increasing concentrations, 72 hours", "procedure": "(§1) FIGS. 10A and 10B show implication of phospho-MARCKS levels in drug resistance. (A) Effects of ectopic V5-tagged PSD-mutant or wild type MARCKS expression on CL1-0 cells in response to various drug treatments. (B) Effects of MARCKS shRNA silencing on A549 cells in response to various drug treatments. Western blot analyses were carried out to determine phospho-MARCKS and total MARCKS levels in these stable cells with appropriate antibodies. The cells were subjected to various doses of cisplatin, paclitaxel, erlotinib or dasatinib for treatment, as indicated. After 72 hours of treatment, cell viability was determinate by MTS assays. Data shown as mean±SD. *P<0.05 versus mock (A; n=3); *P<0.05 versus control shRNA (B; n=4).\nTo determine if the MARCKS phosphorylation step can serve as a therapeutic target, Applicants evaluated whether the status of MARCKS PSD phosphorylation could alter the sensitivity of NSCLC cells to chemotherapeutic agents and tyrosine kinase inhibitors (TKIs). The V5-tagged wild-type and PSD-mutated (S159/163A) MARCKS constructs were generated and transfected into low MARCKS-expressing CL1-0 cells (FIG. 16A) (Chen, C. H. et al. (2013) Oncogene) for establishing stable clones. These stable cell lines were exposed to increasing concentrations of cisplatin, paclitaxel, erlotinib or dasatinib for 72 hours. […] These toxicities were repressed by enforced expression of V5-tagged wild type MARCKS, but not by overexpression of the S159/163A mutant."}, "[2]": {"test_system": "A549 cells", "experiment": "MTS drug sensitivity of MARCKS-knockdown cells", "format": "cell-based, human", "conditions": "stable MARCKS-knockdown A549 cells versus control shRNA; 72 hours", "procedure": "as §1\nFor enforced expression of V5-tagged MARCKS in CL1-0, lung cancer cells were transfected with pcDNA3.1-MARCKS, pcDNA3.1-S159/163A MARCKS or pcDNA3.1 vector using lipofectamine reagent (Invitrogen), according to the manufacturer's protocol. After culturing in medium containing with 400 μg/mL of G418 (Invitrogen) for 2-3 weeks, individual clones were isolated. Clones that expressed the MARCKS cDNA coding region were maintained in medium containing 200 μg/mL of G418 and used for further investigation. Applicants also established a MARCKS-mixed knockdown stable A549 transfectant. […]"}, "[3]": {"test_system": "H1650 and H1975 cells", "conditions": "0.5 μM erlotinib alone; 48 hours", "protocol": "The combinatorial effect of MPS peptide with erlotinib on cancer cell lines. Two chemoresistant lung cancer cells, H1650 (Left) and H1975 (Right) cells were respectively co-treated with various dosages of erlotinib and 50 μM MPS peptide. After 48 hours, cell viability was determinate by MTS assay. *, P<0.05.\nTwo erlotinib resistant cell lines, H1975 (left) and H1650 (right), were co-treated with various dosages of erlotinib and 50 μM MPS peptide. After 48 hours, cell viability was determined by MTS assay. *, P<0.05.\nCells were seeded onto 96-well plates at a density of 5-10×10^3 cells per well and cultured for the indicated treatment. Cell viability was evaluated using a MTS assay kit (Promega, Madison, Wis.). Twenty microliters of the combined MTS/PMS solution was added into each well, incubated for 3 hours at 37° C., and the absorbance was measured at 490 nm by using an ELISA reader."}, "[4]": {"test_system": "cancer cell lines (H1975, HCT116, H1650, CL1-5 and others)", "experiment": "MTS cell viability assay, cancer cell lines", "format": "cell-based", "conditions": "H1975, HCT116, H1650 and CL1-5 cells; 72 hours; listed as MPS peptide", "procedure": "Top, cells were incubated with various concentrations of MPS peptide for 72 hours and then subjected to a MTS assay for analysis of cell viability. Polyamine served as a peptide control. *, P<0.05 compared with untreated cells. The HBE1 cell line is a normal bronchial epithelial cell line. Bottom, ethnicities of the cancer cell lines used for MTS assay.\nFIGS. 13A-13G show MPS peptide suppresses cancer cell proliferation and also induces apoptosis in these cells through direct downregulation of MARCKS activation. (A) Determination of MARCKS phosphorylation levels after 24 hours of MPS peptide treatment. Lysates from 1-100 μM MPS peptide-treated H1975 cells were subjected to western blot analysis. (B) Levels of PIP3 in drug resistant cancer cell lines after MPS peptide treatment. Cells were treated with 10, 50 or 100 μM MPS peptide. After 24 hours of treatment, PIP3 lipids were extracted from these cells and analyzed by a PIP3 ELISA kit. *P<0.05 compared with untreated cells. […] (E) Cells were treated with the indicated concentrations of MPS peptide and colonies were counted after 10 days of treatment using crystal violet staining (F) MPS treatment augments cell death. […] The percentages of apoptotic cells were quantified by flow cytometry (top), and presented as mean±SD of three experiments (bottom). *, P<0.05 versus untreated cells (Con). […]"}, "[5]": {"test_system": "normal human bronchial epithelial cells", "experiment": "Crystal violet staining of viable normal cells after peptide treatment", "format": "cell-based", "conditions": "50 μM or various concentrations; 72 hours", "procedure": "After 72 hours of peptide treatment, the number of viable cells was visualized by using crystal violet staining. A representative of three independent experiments.\n(§2) After 72 hours of peptide treatment, the number of viable cells was visualized by using crystal violet staining. A representative example of three independent experiments is shown. […] Cells were incubated with various concentrations of MPS peptide for 72 hours and then subjected to MTS assays. 200 μM polyamine and aspartates-substituted mutant (Mut) peptide served as peptide controls (n=3)."}, "[6]": {"experiment": "Tolerability upon systemic administration", "format": "in vivo", "conditions": "systemic administration in mice"}, "[7]": {"test_system": "lung cancer cells with low phospho-MARCKS levels", "experiment": "MTS cell viability, lung cancer cell lines with low phospho-MARCKS levels", "format": "cell-based, human", "conditions": "various concentrations, 72 hours", "procedure": "as §2"}, "[8]": {"test_system": "H1975 cells", "experiment": "Subcutaneous H1975 xenograft, peptide treatment", "format": "in vivo, nude mice", "conditions": "i.p., 28 mg/kg every three days for 7 injections", "procedure": "FIGS. 14A-14F show suppressive effects of MPS peptide on cancer growth and metastasis in vivo. (A-C) Suppression of tumorigenesis by MPS peptide. Nude mice bearing subcutaneous tumors were treated for 21 days with intraperitoneal injections of PBS, Mut or MPS peptide at the dosage of 28 mg/kg/3 days. Tumor appearance and volumes were measured and data was presented as mean±SD (n=5, A). A representative photo of primary tumors from subcutaneous tissue of nude mice was shown (B, left). The tumor weights were average values from five mice per group and data were shown as mean±SE (B, right). * P<0.05 as compared with PBS group. […] Top, a representative photo of primary tumors from subcutaneous tissue of nude mice. Bottom, tumor weights are average values from six mice per group. Data were shown as mean±SE. *P<0.01 as compared to PBS-treated group. (E) Inhibition of lung cancer metastasis by MPS peptide. Dissociated PC9 cells were orthotopically injected into the left lobe of the mouse lung. […] (F) Quantification of the average pulmonary metastasis nodules from mice with injected cancer cells and treated with […] or MPS peptide as described (*P<0.05 versus PBS).\nTo determine the anti-cancer effect of the MPS peptide in vivo, H1975 cells were injected subcutaneously into nude mice. […] After treatment for 21 days, the animals were sacrificed to evaluated tumor weights."}, "[9]": {"test_system": "MARCKS phosphorylation (Ser159/163)", "experiment": "Western blot of MARCKS phosphorylation in peptide-treated cells", "format": "cell-based, human", "conditions": "100 μM peptide, 24 hours, H1650 or H1975 cells", "procedure": "The levels of MARCKS phosphorylation in chemoresistant cancer cell lines after 24 hours of MPS or mutant (Mut) peptide treatment. Lysates form 100 μM MPS-or Mut peptide-treated H1650 or H1975cells were subjected to immunoblotting. The sequences of MARCKS MPS peptide consisted of amino acids 152 to 176 from the wild-type protein (SEQ ID NO: 9). The sequences of mutated MPS peptide (Mut) (SEQ ID NO: 14) had the replacement of serine residues (S) by aspartate (D) and are unable to be recognized by PKC. The underline represents the PIP2 binding site.\nFIGS. 13A-13G show MPS peptide suppresses cancer cell proliferation and also induces apoptosis in these cells through direct downregulation of MARCKS activation. (A) Determination of MARCKS phosphorylation levels after 24 hours of MPS peptide treatment. Lysates from 1-100 μM MPS peptide-treated H1975 cells were subjected to western blot analysis. (B) Levels of PIP3 in drug resistant cancer cell lines after MPS peptide treatment. Cells were treated with 10, 50 or 100 μM MPS peptide. After 24 hours of treatment, PIP3 lipids were extracted from these cells and analyzed by a PIP3 ELISA kit. *P<0.05 compared with untreated cells. (C) Downregulation of AKT phosphorylation by MPS peptide treatment, but not by Mut peptide. Cells were treated with 100 μM MPS or Mut peptide for 24 hours. Lysates were immunoblotted with the indicated antibodies. (D) Cell viability analysis of six cancer cell lines and human bronchial epithelial cells (HBE1) upon MPS treatment. Cells were incubated with various concentrations of MPS peptide for 72 hours and then subjected to MTS assays. Polylysine served as a peptide control. n=4, *P<0.05 compared with untreated cells (Con). (E) Cells were treated with the indicated concentrations of MPS peptide and colonies were counted after 10 days of treatment using crystal violet staining (F) MPS treatment augments cell death. […] The percentages of apoptotic cells were quantified by flow cytometry (top), and presented as mean±SD of three experiments (bottom). *, P<0.05 versus untreated cells (Con). […]"}}, "note": "“Also recorded” adds a separate entry of the source. Peptide text beside a SMILES is read from it."}
{"compound": "CC(=O)O[C@H]1C(=O)[C@@]2(C)[C@H]([C@H](OC(=O)c3ccccc3)[C@]3(O)C[C@H](OC(=O)[C@H](O)[C@@H](NC(=O)c4ccccc4)c4ccccc4)C(C)=C1C3(C)C)[C@]1(OC(C)=O)CO[C@@H]1C[C@@H]2O", "note": "[paclitaxel]", "values": [{"measurement": "Cell viability", "setting": "[1]", "result": "dose-dependent decrease of cell viability"}]}
{"compound": "5′-GAGCGCTTCTCCTTCAAGAA-3′ (expressed or natural sequence) [MARCKS shRNA-c, common MARCKS-specific short hairpin RNA]", "values": [{"measurement": "Sensitivity to cisplatin, paclitaxel, erlotinib, dasatinib", "setting": "[2]", "result": "enhanced sensitivity to these drugs"}]}
{"compound": "C#Cc1cccc(Nc2ncnc3cc(OCCOC)c(OCCOC)cc23)c1", "note": "[erlotinib]", "values": [{"measurement": "Cell viability", "setting": "[1]", "result": "dose-dependent decrease of cell viability"}, {"measurement": "Cell viability compared to untreated cells", "setting": "[3]", "result": "no significant decrease in cell viability"}]}
{"compound": "CC(C)C[C@H](NC(=O)[C@H](CCCCN)NC(=O)[C@H](Cc1ccccc1)NC(=O)[C@H](CO)NC(=O)[C@H](CCCCN)NC(=O)[C@H](CCCCN)NC(=O)[C@H](Cc1ccccc1)NC(=O)[C@H](CO)NC(=O)[C@H](Cc1ccccc1)NC(=O)[C@H](CCCNC(=N)N)NC(=O)[C@H](CCCCN)NC(=O)[C@H](CCCCN)NC(=O)[C@H](CCCCN)NC(=O)[C@H](CCCCN)NC(=O)[C@@H](N)CCCCN)C(=O)N[C@@H](CO)C(=O)NCC(=O)N[C@@H](Cc1ccccc1)C(=O)N[C@@H](CO)C(=O)N[C@@H](Cc1ccccc1)C(=O)N[C@@H](CCCCN)C(=O)N[C@@H](CCCCN)C(=O)N[C@@H](CC(N)=O)C(=O)N[C@@H](CCCCN)C(=O)N[C@@H](CCCCN)C(=O)O", "note": "[MPS] (H-KKKKKRFSFKKSFKLSGFSFKKNKK-OH)", "values": [{"measurement": "Cytotoxic / anti-proliferative effect on TKIs resistant cancer cells", "setting": "[4]", "result": "cytotoxicity effect of MPS peptide is obvious; also recorded: obvious anti-proliferative effect"}, {"measurement": "Cytotoxicity in normal human bronchial epithelial cells", "setting": "[5]", "result": "did not observe any cytotoxicity"}, {"measurement": "Tolerability", "setting": "[6]", "result": "well tolerated upon systemic administration in mice"}, {"measurement": "Cytotoxicity in lung cancer cells with low phospho-MARCKS levels", "setting": "[7]", "result": "did not observe any cytotoxicity"}]}
{"compound": "KKKKKRFDFKKDFKLDGFDFKKNKK [Mut, aspartates-substituted mutant MPS peptide used as control]", "values": [{"measurement": "Tumor size", "setting": "[8]", "result": "continuous growth"}, {"measurement": "Suppression of p-MARCKS", "setting": "[9]", "result": "no suppression"}, {"measurement": "Suppression of p-MARCKS", "setting": "[9]; listed as Mut peptide", "result": "not in Mut peptide-treated cells"}]}
{"compound": "N.N.[Cl][Pt][Cl]", "note": "[cisplatin]", "values": [{"measurement": "Cell viability", "setting": "[1]", "result": "dose-dependent decrease of cell viability"}]}
